Results on 3 compounds are retold here after patent publication US11186602B2, “Glucopyranosyl derivative and use thereof” (SUNSHINE LAKE PHARMA CO., LTD., priority 2018, dated 2021).

This assay concerns the target T1, human SGLT1 (Homo sapiens, UniProt P13866).
T1 construct: expressed in transfected cells; host or cells: CHO cells (Flp-in CHO)
T1 sequence (P13866 1-664): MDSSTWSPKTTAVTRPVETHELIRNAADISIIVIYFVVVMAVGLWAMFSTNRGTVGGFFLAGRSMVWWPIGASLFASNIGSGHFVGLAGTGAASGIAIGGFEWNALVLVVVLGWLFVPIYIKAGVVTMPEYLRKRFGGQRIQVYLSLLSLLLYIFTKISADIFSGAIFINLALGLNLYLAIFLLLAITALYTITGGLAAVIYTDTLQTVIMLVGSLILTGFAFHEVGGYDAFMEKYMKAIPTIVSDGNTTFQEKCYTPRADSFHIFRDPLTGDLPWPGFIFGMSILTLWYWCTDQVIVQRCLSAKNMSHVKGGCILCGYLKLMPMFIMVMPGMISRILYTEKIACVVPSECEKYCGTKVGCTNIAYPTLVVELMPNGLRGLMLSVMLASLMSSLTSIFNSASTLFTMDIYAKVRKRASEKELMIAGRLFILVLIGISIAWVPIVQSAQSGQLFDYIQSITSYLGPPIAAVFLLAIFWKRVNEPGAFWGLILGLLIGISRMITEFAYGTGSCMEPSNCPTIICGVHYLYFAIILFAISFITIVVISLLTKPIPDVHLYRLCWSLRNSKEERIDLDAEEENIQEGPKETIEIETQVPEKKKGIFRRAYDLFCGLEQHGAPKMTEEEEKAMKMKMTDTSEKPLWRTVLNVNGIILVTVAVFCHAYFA
As to the kind of experiment: Determination of SGLT1 inhibitory activity ([14C]-AMG uptake in CHO cells expressing human SGLT1). The format is cell-based. Conditions: CHO cells expressing human SGLT1, [14C]-AMG uptake, 37° C. for 1 hour. On the procedure: Mock-transfected FIP-in CHO cells (3×10^4 cells) and CHO cells expressing human SGLT1 gene were seeded into 96-well plates respectively. The cells were incubated for 12 hours. Each well of the 96-well plates was washed with 150 μL of sodium-free buffer once. To each well was added 50 μL of sodium-containing buffer containing test compounds having different concentrations and 0.5 μm [^14C]-AMG And the mixture in the well was incubated at 37° C. for 1 hour. To each well was added 150 μL of precooled sodium-free buffer to terminate the reaction. The cell pellet was washed with sodium free buffer three times and the residual liquid in well was removed. To each well was added 20 μL of precooled 100 mM NaOH, and the 96-well plates were vibrated at 900 rpm for 5 minutes. Scintillation fluid (80 μL) was added to each well which was then vibrated at 600 rpm for 5 minutes. The amount of 14C-AMG was quantitatively detected using liquid scintillation.
For orientation: IC50 means the concentration needed to halve the response being measured. Regarding `Cc1ccc([C@]23OC[C@](C(C)(C)O)(O2)[C@@H](O)[C@H](O)[C@H]3O)cc1Cc1ccc(CCCC(=O)NC(C)(C)C(=O)NCCN2CCCC2)cc1` [Example 1, 2-Methyl-2-[4-[4-[[2-methyl-5-[(1S,2S,3S,4R,5S)-2,3,4-trihydroxy-1-(1-hydroxy-1-methyl-ethyl)-6,8-dioxabicyclo[3.2.1]octan-5-yl]phenyl]methyl]phenyl]butyrylamino]-N-(2-pyrrolidin-1-ylethyl)propionamide], inhibition was half-maximal at 1.73 nM (IC50).

`Cc1ccc([C@]23OC[C@](C(C)(C)O)(O2)[C@@H](O)[C@H](O)[C@H]3O)cc1Cc1ccc(CCCC(=O)NC2(C(=O)NCCN3CC[C@@H](F)C3)CCCCC2)cc1` [Example 7, N-[2-[(3R)-3-fluoropyrrolidin-1-yl]ethyl]-1-[4-[4-[[2-methyl-5-[(1S,2S,3S,4R,5S)-2,3,4-trihydroxy-1-(1-hydroxy-1-methyl-ethyl)-6,8-dioxabicyclo[3.2.1]octane-5-yl]phenyl]methyl]phenyl]butyrylamino]cyclohexyl formamide] showed an IC50 of 1.16 nM.

For `Cc1ccc([C@]23OC[C@](C(C)(C)O)(O2)[C@@H](O)[C@H](O)[C@H]3O)cc1Cc1ccc(CCCC(=O)N2CCC[C@H]2C(=O)NCCN(C)C)cc1` [Example 11, (2S)—N-(2-Dimethylaminoethyl)-1-[4-[4-[[2-methyl-5-[(1S,2S,3S,4R,5S)-2,3,4-trihydroxy-1-(1-hydroxy-1-methyl-ethyl)-6,8-dioxabicyclo[3.2.1]octan-5-yl]phenyl]methyl]phenyl]butyryl]pyrrolidine-2-carboxamide], the IC50 is 5.75 nM.
